Earlier results as cited in patent US5965160A, “Self-emulsifiable formulation producing an oil-in-water emulsion” (priority 1998, dated 1999).

Conditions: sealed entero-coated hard gelatine capsule; Barnwell et al, 1992

In the case of `CC(C)NCC(O)COc1cccc2ccccc12` (stereo not shown) [propranolol], the “oral bioavailability (in words)” value is listed as “can be improved by dissolving the drug in a lipid formulation containing mainly oleic acid”.
